The source made the active and inactive calls.
How the values were obtained:
HEK293 = assay: Fluorescence-based counterscreen for potentiators or agonists of NPY-Y2: cell-based high-throughput dose response assay to identify inhibitors of cyclic nucleotide gated ion channel (CNGC) activity. In this assay, the parental HEK293 cell line transfected with a cyclic-nucleotide gated ion channel (CNGC)-based cAMP sensor is used to measure inhibition of isoproterenol-induced CNGC activity by test compound.; type: functional; settings: Homo sapiens;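 further: stimulus is 1 µM isoproterenol at EC100 plus PDE inhibitor Ro 20-1724 at 25 µM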
[1] = target: T1, Neuropeptide Y receptor type 2 (Homo sapiens, UniProt P49146); assay: Fluorescence-based cell-based high-throughput dose response assay for agonists of NPY-Y2. [Related pubchem assays: 1703 (Screening assay (CNGC inhibitors).), 1359 (Screening assay (NPY-Y2 potentiators or agonists).), 1304 (Screening assay (NPY-Y1 potentiators or agonists).), 1710 (Screening assay (NPY-Y2 agonists).), 1791 (Summary AID.)]; type: functional
T1 sequence (P49146 whole entry): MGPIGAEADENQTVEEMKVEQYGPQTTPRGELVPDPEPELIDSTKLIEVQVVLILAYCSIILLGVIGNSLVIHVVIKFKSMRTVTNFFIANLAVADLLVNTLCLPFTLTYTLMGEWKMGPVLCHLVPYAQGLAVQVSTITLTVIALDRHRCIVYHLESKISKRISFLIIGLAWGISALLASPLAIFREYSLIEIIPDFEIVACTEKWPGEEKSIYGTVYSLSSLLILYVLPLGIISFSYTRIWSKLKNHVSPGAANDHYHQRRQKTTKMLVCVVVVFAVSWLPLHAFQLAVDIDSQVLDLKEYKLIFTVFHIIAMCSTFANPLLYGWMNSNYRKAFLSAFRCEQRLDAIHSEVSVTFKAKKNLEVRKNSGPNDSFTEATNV

[2] = target: T2, Neuropeptide Y receptor type 1 (Homo sapiens, UniProt P25929); assay: Fluorescence-based counterscreen for agonists of NPY-Y2: cell-based high-throughput dose response assay for agonists of NPY-Y1.; type: functional
T2 sequence (P25929 whole entry): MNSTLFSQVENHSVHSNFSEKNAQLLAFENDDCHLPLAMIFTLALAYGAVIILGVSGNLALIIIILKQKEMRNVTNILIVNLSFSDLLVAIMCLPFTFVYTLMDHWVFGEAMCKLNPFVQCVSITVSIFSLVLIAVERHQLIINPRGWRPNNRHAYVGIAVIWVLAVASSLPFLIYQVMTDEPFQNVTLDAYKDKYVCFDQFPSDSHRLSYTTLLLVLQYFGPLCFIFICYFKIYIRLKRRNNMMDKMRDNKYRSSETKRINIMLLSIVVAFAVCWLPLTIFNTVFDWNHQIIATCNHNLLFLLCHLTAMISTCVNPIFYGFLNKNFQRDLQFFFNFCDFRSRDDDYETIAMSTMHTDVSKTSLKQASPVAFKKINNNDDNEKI

Estrogen receptor [3] = target: T3, Estrogen receptor (Homo sapiens, UniProt P03372); assay: ERα coactivator recruitment enhancers – biochemical, TR-FRET, ERα LBD, dose response (AID 737)
T3 sequence (P03372 whole entry): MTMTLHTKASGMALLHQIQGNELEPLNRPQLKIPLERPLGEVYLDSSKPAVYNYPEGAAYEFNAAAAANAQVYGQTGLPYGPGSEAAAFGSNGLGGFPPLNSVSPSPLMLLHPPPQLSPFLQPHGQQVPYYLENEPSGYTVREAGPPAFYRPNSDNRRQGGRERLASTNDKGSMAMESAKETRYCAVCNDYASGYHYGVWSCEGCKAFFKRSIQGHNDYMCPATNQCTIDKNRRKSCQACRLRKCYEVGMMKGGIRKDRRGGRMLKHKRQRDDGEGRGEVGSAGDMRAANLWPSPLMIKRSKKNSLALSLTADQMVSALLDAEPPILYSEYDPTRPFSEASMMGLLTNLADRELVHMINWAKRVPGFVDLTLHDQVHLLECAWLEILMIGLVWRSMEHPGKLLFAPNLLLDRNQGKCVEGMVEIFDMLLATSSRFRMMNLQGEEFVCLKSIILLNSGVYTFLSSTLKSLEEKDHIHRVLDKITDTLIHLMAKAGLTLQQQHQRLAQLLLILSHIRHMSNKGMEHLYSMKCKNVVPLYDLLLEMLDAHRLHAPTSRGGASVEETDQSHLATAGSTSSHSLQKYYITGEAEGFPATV

[4] = target: Inward rectifier potassium channel 2 (Mus musculus, UniProt P35561); assay: Manual electrophysiological patch clamp assay for SAR compounds that inhibit/block inward-rectifying potassium ion channel Kir2.1. [Related pubchem assays: 1843 (Summary assay for Kir2.1 inhibitor assays.), 1672 (Primary HTS of 305616 compounds where 2592 were identified as active.)]; type: functional
Sequence of Inward rectifier potassium channel 2 (P35561 whole entry): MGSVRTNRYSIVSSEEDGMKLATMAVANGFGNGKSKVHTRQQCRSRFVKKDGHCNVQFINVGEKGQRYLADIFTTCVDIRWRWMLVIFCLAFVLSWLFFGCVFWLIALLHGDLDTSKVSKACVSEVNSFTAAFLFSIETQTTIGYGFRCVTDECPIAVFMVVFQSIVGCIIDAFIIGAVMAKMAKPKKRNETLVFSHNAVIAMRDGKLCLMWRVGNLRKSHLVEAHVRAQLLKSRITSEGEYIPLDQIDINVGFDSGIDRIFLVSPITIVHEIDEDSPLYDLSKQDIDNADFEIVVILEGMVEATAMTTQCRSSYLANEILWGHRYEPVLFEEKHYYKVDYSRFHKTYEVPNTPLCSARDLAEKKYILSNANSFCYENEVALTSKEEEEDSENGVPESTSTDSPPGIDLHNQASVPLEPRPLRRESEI

[5] = target: Luciferin 4-monooxygenase (Photinus pyralis, UniProt P08659); assay: Counter Screen for Luciferase-based Assay Positives. [Related pubchem assays: 620, 618, 411 ]
Sequence of Luciferin 4-monooxygenase (P08659 whole entry): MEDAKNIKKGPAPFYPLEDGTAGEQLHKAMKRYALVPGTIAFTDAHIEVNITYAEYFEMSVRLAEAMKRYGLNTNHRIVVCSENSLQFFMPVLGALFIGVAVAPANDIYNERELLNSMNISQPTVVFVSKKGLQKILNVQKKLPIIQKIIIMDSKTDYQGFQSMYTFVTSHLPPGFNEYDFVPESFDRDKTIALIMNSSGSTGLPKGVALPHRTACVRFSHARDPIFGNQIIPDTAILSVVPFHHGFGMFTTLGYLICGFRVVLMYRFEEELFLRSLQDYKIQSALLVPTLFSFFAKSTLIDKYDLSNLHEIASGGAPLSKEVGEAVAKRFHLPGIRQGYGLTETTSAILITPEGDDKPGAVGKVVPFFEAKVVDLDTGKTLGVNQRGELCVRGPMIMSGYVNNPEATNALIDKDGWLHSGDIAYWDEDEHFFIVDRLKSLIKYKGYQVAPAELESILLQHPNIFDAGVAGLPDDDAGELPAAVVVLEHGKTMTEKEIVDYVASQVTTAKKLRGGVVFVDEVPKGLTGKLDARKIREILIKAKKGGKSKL

HT-1080 = assay: HT1080 cell viability loss – fluorescence readout (AID 620); type: functional, cell-based; settings: Homo sapiens
[6] = antiviral protection against BTV-induced cell death – arbovirus, BSR cells, confirmation (AID 1250); type: functional;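 further: protection from viral cytopathic effect measured as cell viability by ATP luminescence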
[7] = M. tuberculosis H37Rv growth inhibitors, H37Rv strain (AID 1626); type: functional
Protein Tat = target: T4, Protein Tat (Human immunodeficiency virus type 1 group M subtype B (isolate HXB2)(HIV-1), UniProt P04608); type: functional;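 further: tat binding to TAR RNA read out by fluorescence polarization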
T4 sequence (P04608 whole entry): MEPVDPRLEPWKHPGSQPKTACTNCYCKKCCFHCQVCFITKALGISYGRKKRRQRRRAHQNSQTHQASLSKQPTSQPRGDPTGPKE

[8] = A cytotoxicity screen of small molecule inhibitors of the PhoP region in Salmonella typhi identified in the primary screen. [Related pubchem assays: 1850, 1864, 1985 ]; type: functional
cells [9] = type: functional
Cytochrome P450 2C19 = Cytochrome P450 2C19 (Homo sapiens, UniProt P33261); assay: Cytochrome panel assay with activity outcomes. Panel member name: p450-cyp2c19 Compounds with AC50 equal or less than 10 uM are considered active; type: functional; settings: read-out: AC50
Sequence of Cytochrome P450 2C19 (P33261 whole entry): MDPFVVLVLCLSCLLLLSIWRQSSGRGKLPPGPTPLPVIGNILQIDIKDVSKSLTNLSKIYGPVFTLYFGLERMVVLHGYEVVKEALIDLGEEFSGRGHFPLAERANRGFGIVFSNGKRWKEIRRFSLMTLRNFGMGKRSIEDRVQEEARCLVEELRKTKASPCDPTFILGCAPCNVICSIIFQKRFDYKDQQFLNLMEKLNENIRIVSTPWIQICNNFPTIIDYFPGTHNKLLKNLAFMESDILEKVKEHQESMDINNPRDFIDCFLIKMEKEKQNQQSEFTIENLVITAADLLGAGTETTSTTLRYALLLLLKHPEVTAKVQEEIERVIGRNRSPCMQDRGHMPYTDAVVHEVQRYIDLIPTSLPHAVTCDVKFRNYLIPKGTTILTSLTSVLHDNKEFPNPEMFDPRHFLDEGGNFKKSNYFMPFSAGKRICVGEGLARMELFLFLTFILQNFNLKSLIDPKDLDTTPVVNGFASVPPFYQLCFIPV

Cytochrome P450 2C9 = Cytochrome P450 2C9 (Homo sapiens, UniProt P11712)
Sequence of Cytochrome P450 2C9 (P11712 whole entry): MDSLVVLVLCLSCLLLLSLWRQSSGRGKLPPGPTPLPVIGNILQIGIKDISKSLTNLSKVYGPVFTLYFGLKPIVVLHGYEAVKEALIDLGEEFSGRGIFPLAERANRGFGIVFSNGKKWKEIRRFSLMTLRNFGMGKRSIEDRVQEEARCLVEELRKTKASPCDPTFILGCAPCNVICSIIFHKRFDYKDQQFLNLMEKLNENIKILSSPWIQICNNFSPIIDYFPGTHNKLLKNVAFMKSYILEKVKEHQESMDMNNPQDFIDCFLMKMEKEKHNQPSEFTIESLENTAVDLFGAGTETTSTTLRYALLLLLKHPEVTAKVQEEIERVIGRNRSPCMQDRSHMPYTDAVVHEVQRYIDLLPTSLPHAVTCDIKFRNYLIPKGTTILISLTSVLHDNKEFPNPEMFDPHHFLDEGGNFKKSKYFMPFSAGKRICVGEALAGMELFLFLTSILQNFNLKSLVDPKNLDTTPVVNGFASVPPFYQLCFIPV

cells [10] = assay: cells
[11] = luciferase reporter signal suppression in cells – H4 neuroglioma cells, luminescence, dose response (AID 1990); type: functional, cell-based
[12] = luciferase reporter signal reduction – luminescence, H4-C neuroglioblastoma cells, dose response (AID 2458); type: functional, cell-based;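 further: H4 neuroglioblastoma cells stably carrying a luciferase reporter gene fusion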
cells [13] = type: functional, cell-based
[14] = Luminescence Cell-Based Dose Response HTS to Identify Inhibitors of 5'UTR Stem-Loop Driven Prion Protein mRNA Translation in H4 Neuroglioblastoma Cells. [Related pubchem assays: 1827 (Project Summary), 1813 (Primary HTS)]; type: functional
[15] = target: T5, Heat shock factor protein 1 (Mus musculus, UniProt P38532); assay: decrease of HSF1-responsive luciferase luminescence – cell-based, NIH3T3, dose retest, confirmation (AID 2382); type: functional;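 further: NIH3T3 fibroblasts with HSF1-driven luciferase reporter stressed by proteasome inhibitor MG132; luminescence from HSF1-driven luciferase expression after 8 hours of MG132 stress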
T5 sequence (P38532 whole entry): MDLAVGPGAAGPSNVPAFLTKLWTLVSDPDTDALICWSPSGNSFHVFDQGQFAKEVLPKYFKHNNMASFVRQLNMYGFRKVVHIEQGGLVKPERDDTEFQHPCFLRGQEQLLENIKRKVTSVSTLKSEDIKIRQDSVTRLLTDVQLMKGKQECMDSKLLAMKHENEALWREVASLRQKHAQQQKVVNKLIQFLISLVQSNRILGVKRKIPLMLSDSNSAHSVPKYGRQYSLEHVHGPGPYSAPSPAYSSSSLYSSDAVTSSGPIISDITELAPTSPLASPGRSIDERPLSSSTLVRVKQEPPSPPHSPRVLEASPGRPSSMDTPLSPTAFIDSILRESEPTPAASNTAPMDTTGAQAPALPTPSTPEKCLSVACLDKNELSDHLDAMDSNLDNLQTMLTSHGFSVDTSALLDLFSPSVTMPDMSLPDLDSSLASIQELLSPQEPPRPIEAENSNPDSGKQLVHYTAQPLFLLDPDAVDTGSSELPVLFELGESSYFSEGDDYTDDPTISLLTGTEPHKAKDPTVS

[16] = alpha-synuclein stem-loop luciferase translation blockers – H4 neuroglioma cells, luminescence, confirmation (AID 1988); type: functional, cell-based
[17] = Luminescence-based counterscreen assay for KLF5 inhibitors: dose response cell-based high throughput screening assay to identify cytotoxic compounds using the IEC-6 intestinal epithelial cell line. [Related pubchem assays: 1700 (Primary screen.), 1834 (Confirmation screen.), 1858 (Summary AID.), 1905 (Counterscreen.)]; type: functional
[18] = alpha-synuclein stem-loop translation blockers – luminescence, H4 neuroglioblastoma cells, dose confirmation, confirmation (AID 2454); type: functional, cell-based;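 further: H4 neuroglioblastoma cells carrying an alpha-synuclein 5'UTR luciferase reporter; potency for inhibition of the luciferase signal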
[19] = toxicity toward HepG2 liver cells – cell-based, plate reader, cherry-pick, antagonist series, cytotoxicity control, dose response (AID 743416); type: functional
[20] = blockers of bursicon-stimulated LGR2 cAMP reporter – cell-based, HEK293, CRE-luciferase reporter, cherry pick, set 2, dose response (AID 743343); type: functional;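 further: transfected cells were stimulated with diluted bursicon conditioned medium after compound addition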
[21] = blockade of melanocortin 4 receptor signaling – cell-based, plate reader, cherry pick, counter-screen for LGR2 antagonist project, dose response (AID 743444); type: functional;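 further: transfected HEK 293 cells stimulated with alpha-MSH peptide; potency of inhibitors of the alpha-MSH evoked signal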
[22] = viability loss in HEK293 cells – cell-based, plate reader, cherry-picked samples, cytotoxicity control, dose response (AID 743446); type: functional
[23] = viability of uninfected HEp-2 cells – cell-based, HTS, cytotoxicity control for RSV inhibitor project, dose response (AID 2410); type: functional; settings: human respiratory syncytial virus
Estrogen receptor [24] = target: T3, Estrogen receptor
Estrogen receptor beta [25] = target: T6, Estrogen receptor beta (Homo sapiens, UniProt Q92731);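 further: recombinant ER-beta bound to coactivator SRC1 peptide in presence of estradiol agonist; inhibitors block coactivator peptide binding and lower the FRET signal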
T6 sequence (Q92731 whole entry): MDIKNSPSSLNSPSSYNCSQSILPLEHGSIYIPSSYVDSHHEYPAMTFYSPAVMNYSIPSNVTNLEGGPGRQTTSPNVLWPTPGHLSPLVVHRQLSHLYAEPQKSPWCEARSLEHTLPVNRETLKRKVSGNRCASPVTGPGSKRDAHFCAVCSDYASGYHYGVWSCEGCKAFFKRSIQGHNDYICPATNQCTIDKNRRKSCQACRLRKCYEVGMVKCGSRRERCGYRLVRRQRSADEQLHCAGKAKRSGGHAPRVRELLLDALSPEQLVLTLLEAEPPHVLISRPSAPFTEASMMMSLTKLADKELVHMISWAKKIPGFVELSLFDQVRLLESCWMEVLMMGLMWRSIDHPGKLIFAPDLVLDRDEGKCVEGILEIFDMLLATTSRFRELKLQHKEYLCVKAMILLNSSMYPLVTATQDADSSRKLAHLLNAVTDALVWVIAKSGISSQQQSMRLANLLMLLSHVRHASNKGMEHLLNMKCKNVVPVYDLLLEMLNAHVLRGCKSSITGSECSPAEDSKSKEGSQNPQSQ

Estrogen receptor beta [26] = target: T6, Estrogen receptor beta; assay: blockers of SRC-3 recruitment to ERβ – biochemical, ELISA, streptavidin-HRP readout, orthogonal assay, confirmation (AID 1060)
NADPH oxidase 1 = target: T7, NADPH oxidase 1 (Homo sapiens, UniProt Q9Y5S8); type: functional, cell-based;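 further: Cell-based assay with luminescence read-out, IC50 derived from inhibitor dose-response curves; intracellular ROS from endogenous NOX1 in intact HT29 colon cancer cells; potency of inhibitors that lower the ROS luminescence signal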
T7 sequence (Q9Y5S8 whole entry): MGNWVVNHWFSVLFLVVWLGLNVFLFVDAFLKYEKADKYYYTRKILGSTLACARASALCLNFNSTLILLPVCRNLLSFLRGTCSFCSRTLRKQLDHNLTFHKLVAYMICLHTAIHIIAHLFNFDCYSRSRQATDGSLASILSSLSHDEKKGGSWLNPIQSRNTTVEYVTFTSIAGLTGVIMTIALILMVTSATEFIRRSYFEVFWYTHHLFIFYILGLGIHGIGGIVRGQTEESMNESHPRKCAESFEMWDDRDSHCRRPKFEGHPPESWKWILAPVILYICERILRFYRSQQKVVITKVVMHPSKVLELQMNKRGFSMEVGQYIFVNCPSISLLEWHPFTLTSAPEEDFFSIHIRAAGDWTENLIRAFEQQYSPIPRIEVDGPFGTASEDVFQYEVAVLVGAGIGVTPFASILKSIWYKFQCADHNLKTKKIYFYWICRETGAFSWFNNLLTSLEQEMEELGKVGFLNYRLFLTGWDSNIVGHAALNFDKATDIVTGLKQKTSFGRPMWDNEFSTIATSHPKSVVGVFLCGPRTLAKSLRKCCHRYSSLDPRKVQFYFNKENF

Compound: OC1(c2ccc(OC(F)F)cc2)CS/C(=N\c2cccnc2)N1Cc1ccco1 (stereo not given)
- EC50 (HEK293): > 35.4 µM (not active)
- EC50 [1]: > 35.4 µM (not active)
- EC50 [2]: > 35.4 µM (not active)

Compound: COc1cc(NC(=O)c2cccs2)c(C(=O)OCC(=O)NC(=O)NCc2ccccc2)cc1OC
- EC50 (Estrogen receptor [3]): 1.58 µM (active)

Compound: COc1ccc(CNCc2ccc(OC)cc2)cc1
- IC50 [4]: 1.88 µM (active)

Compound: COc1ccc(CNCc2ccc(Cl)cc2Cl)cc1
- IC50 [4]: 3.13 µM (active)

Compound: COCCn1c(C)cc(C2=NN=C(Nc3ccccc3)SC2)c1C
- EC50 [5]: 2.49 µM (active)
- EC50 (HT-1080): > 50 µM (not active)

Compound: COc1ccc(-c2csc(Nc3ccc(C)cn3)n2)cc1OC
- IC50 [6]: 35.9 µM (active)

Compound: COc1ccc(NC(=O)CCCSc2ccccc2)cc1
- IC50 [7]: > 100 µM (active)
- IC50 (Protein Tat): > 100 µM (active)

Compound: CC(=O)/C=C1\Nc2ccccc2OC1=O
- EC50 [8]: > 50 µM (active)
- IC50 (cells [9]): 5.75 µM (active)
- AC50 (Cytochrome P450 2C19): 7.94 µM (inconclusive)
- AC50 (Cytochrome P450 2C9): 2.24 µM (inconclusive)

Compound: O=C(CCn1c(=O)c2sccc2n(Cc2cc(=O)n3ccccc3n2)c1=O)NCc1ccco1
- IC50 (cells [10]): 24.4 µM (active)

Compound: O=C(Nc1nc(-c2ccco2)cs1)c1ccccc1
- IC50 [6]: 30.7 µM (active)

Compound: CCc1ccn2cc(-c3cc(-c4ccccc4)no3)nc2c1
- EC50 [11]: 0.207 µM (active)
- EC50 [12]: 1.2 µM (active)
- EC50 (cells [13]): > 12 µM (inconclusive)
- EC50 [14]: < 0.1 µM (active)
- EC50 [15]: < 0.16 µM (active)
- EC50 [16]: 0.13 µM (active)
- IC50 [17]: > 39.8 µM (not active)
- EC50 [18]: 1.12 µM (active)
- AC50 [19]: 25.4 µM (active)
- AC50 [20]: 0.805 µM (active)
- AC50 [21]: 0.701 µM (active)
- AC50 [22]: > 52 µM (inactive)

Compound: Cc1cccc(N2CCN(C(=O)c3cc4c(=O)n(C)c5ccccc5c4n3C)CC2)c1C
- EC50 (Estrogen receptor [3]): 12.8 µM (active)

Compound: CCOc1ccc(CNC(=O)c2cc3oc4ccccc4c3n2C)cc1
- CC50 [23]: 39 µM (active)
- IC50 (cells [10]): 4.82 µM (active)

Compound: Cc1noc(C)c1COc1ccc(C(=O)OCC(=O)N2c3ccccc3NC(=O)C2(C)C)cc1
- IC50 (Estrogen receptor [24]): 8.74 µM (active)
- IC50 (Estrogen receptor beta [25]): 2.72 µM (active)
- IC50 (Estrogen receptor beta [26]): 3.98 µM (not active)
- IC50 (Protein Tat): > 100 µM (inconclusive)

Compound: COc1cc(SC)ccc1C(=O)Nc1ccc2c(c1)OCCO2
- CC50 [23]: 19.9 µM (active)
- EC50 [5]: 75.4 µM (active)
- EC50 (HT-1080): > 50 µM (not active)

Compound: O=C1Nc2ccccc2/C1=N/NC(=S)Nc1ccccc1
- IC50 (NADPH oxidase 1): > 17 µM (not active)
